Data reported in US6087355A, “Cephalosporin antibiotics” (Microcide Pharmaceuticals, Inc., priority 1996, dated 2000).
Structures can show the parent of a compound that is named as a salt.

How the values were obtained:
[1] = system: S. aureus Col8A(Meth^S)(lac^-); test: In vitro MIC, agar dilution; type: cell-based; conditions: for MIC: Staphylococcus aureus, S. aureus Col8A(Meth^S)(lac^-), read-out: minimum inhibitory concentration (MIC)
Method in brief: (§1)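 Two-fold dilutions (128 to ≤0.25 μg/mL, in duplicate) were poured into Mueller-Hinton agar. Log-phase broth cultures were spot-inoculated at about 10^4 cfu per spot and incubated 35-36°C for 16-20 hours; the MIC was the lowest concentration inhibiting growth. Col is a high-level PBP2a producer; Col 8A is its isogenic PBP2a-lacking partner.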

E. coli ATCC 25992 = test: In vitro MIC, agar dilution; type: cell-based; conditions: Escherichia coli, ATCC25992, read-out: minimum inhibitory concentration (MIC)
Method in brief: (§2)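 Growth inhibition was scored after 16-20 h at 35-36 °C on Mueller-Hinton agar carrying serial two-fold drug concentrations (128 to ≤0.25 μg/mL). Inocula of ~10^4 cfu per spot came from 4-6 h broth cultures.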

E. faecalis ATCC 29212 = test: In vitro MIC, agar dilution; type: cell-based; conditions: Enterococcus faecalis, ATCC29212, read-out: minimum inhibitory concentration (MIC)
Method in brief: as §2

E. faecium A491(Amp^R) = test: In vitro MIC, agar dilution; type: cell-based; conditions: Enterococcus faecium, read-out: minimum inhibitory concentration (MIC)
Method in brief: as §2

E. faecium ATCC 35667 = test: In vitro MIC, agar dilution; type: cell-based; conditions: Enterococcus faecium, ATCC35667, read-out: minimum inhibitory concentration (MIC)
Method in brief: as §2

E. faecium VanA(Van^R) = test: In vitro MIC, agar dilution; type: cell-based; conditions: Enterococcus faecium, read-out: minimum inhibitory concentration (MIC)
Method in brief: as §2

P. aeruginosa ATCC 27853 = test: In vitro MIC, agar dilution; type: cell-based; conditions: Pseudomonas aeruginosa, ATCC27853, read-out: minimum inhibitory concentration (MIC)
Method in brief: as §2

[2] = system: S. aureus 76(Meth^R)(lac^+); test: In vitro MIC, agar dilution; type: cell-based; conditions: Staphylococcus aureus, read-out: minimum inhibitory concentration (MIC)
Method in brief: as §2

[3] = system: S. aureus ATCC 13709(Meth^S); test: In vitro MIC, agar dilution; type: cell-based; conditions: Staphylococcus aureus, ATCC13709, S. aureus ATCC 13709(Meth^S); read-out: minimum inhibitory concentration (MIC)
Method in brief: as §2

S. aureus ATCC 29213 = test: In vitro MIC, agar dilution; type: cell-based; conditions: Staphylococcus aureus, ATCC29213, read-out: minimum inhibitory concentration (MIC)
Method in brief: as §2

[4] = system: S. aureus ATCC 33593(Meth^R); test: In vitro MIC, agar dilution; type: cell-based; conditions: Staphylococcus aureus, ATCC33593, read-out: minimum inhibitory concentration (MIC)
Method in brief: as §2

[5] = system: S. aureus PC1(Meth^S)(lac^+); test: In vitro MIC, agar dilution; type: cell-based; conditions: Staphylococcus aureus, read-out: minimum inhibitory concentration (MIC)
Method in brief: as §2

[6] = system: S. aureus Spain #356(Meth^R); test: In vitro MIC, agar dilution; type: cell-based; conditions: Staphylococcus aureus, read-out: minimum inhibitory concentration (MIC)
Method in brief: as §2

[7] = system: S. haemolyticus 05(Meth^R); test: In vitro MIC, agar dilution; type: cell-based; conditions: Staphylococcus haemolyticus, read-out: minimum inhibitory concentration (MIC)
Method in brief: as §2

[8] = system: S. aureus Col(Meth^R)(lac^-); test: In vitro MIC, agar dilution; type: cell-based; conditions: Staphylococcus aureus, read-out: minimum inhibitory concentration (MIC)
Method in brief: as §1

E. faecalis VanB(Van^R) = test: In vitro MIC, agar dilution; type: cell-based; conditions: Enterococcus faecalis, read-out: minimum inhibitory concentration (MIC)
Method in brief: as §2

[9] = system: S. aureus strain ATCC 13709 (methicillin-susceptible); test: Murine model for lethal bacteremic peritonitis; type: in vivo, female Swiss-Webster mice; conditions: Staphylococcus aureus, ATCC13709, SC, 72 h; for responders at 1.25 mg/kg: read-out: Survivors (converted); for ED50: two equal doses, IP challenge, read-out: ED50
Method in brief: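 Female Swiss-Webster mice were challenged IP with an LD100 inoculum in 7% hog gastric mucin, then given test drug subcutaneously in twofold increments (0.01–512 mg/kg) as two equal doses at challenge and 2 h later, 10 mice per group. Survival was scored at 72 h; PD50 (total mg/kg) was derived by probit.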

SMILES | MIC (E. coli ATCC 25992) [µg/mL] | MIC (E. faecalis ATCC 29212) [µg/mL] | MIC (E. faecium A491(Amp^R)) [µg/mL] | MIC (E. faecium ATCC 35667) [µg/mL] | MIC (E. faecium VanA(Van^R)) [µg/mL] | MIC (P. aeruginosa ATCC 27853) [µg/mL] | MIC [2] [µg/mL] | MIC [3] [µg/mL] | MIC (S. aureus ATCC 29213) [µg/mL] | MIC [4] [µg/mL] | MIC [5] [µg/mL] | MIC [6] [µg/mL] | MIC [7] [µg/mL] | MIC [8] [µg/mL] | MIC [1] [µg/mL] | MIC (E. faecalis VanB(Van^R)) [µg/mL] | responders at 0.3125 mg/kg ([9]; read-out: Survivors) [%] | responders at 0.625 mg/kg ([9]; read-out: Survivors) [%] | responders at 1.25 mg/kg [9] [%] | responders at 2.5 mg/kg ([9]; read-out: Survivors) [%] | other results
CO/N=C(\C(=O)N[C@@H]1C(=O)N2C(C(=O)O)=C(COC(C)=O)CS[C@H]12)c1csc(N)n1 [Cefotaxime, cefotaxime, reference compound] |  |  |  |  |  |  |  |  |  |  |  |  |  |  |  |  |  |  |  |  | responsiveness of S. aureus Col 8A strain ([1]; in words): highly responsive
NCCCOCc1cnccc1SC1=C(C(=O)O)N2C(=O)[C@@H](NC(=O)/C(=N\O)c3nc(N)sc3Cl)[C@H]2SC1 [Cmpd 47, (7R)-7-[(Z)-2-(2-amino-5-chlorothiazol-4-yl)-2-(hydroxyimino)acetamido]-3-(3-(3-aminopropyloxymethyl)pyrid-4-ylthio)-3-cephem-4-carboxylate, trifluoroacetic acid salt] | 8 | 0.13 | 16 | 2 | 2 | > 32 | 2 | 2 | 1 | 2 | 2 | 2 | 4 | 2 | 0.5 |  |  |  |  |  | 
NCCS(=O)(=O)Cc1cnccc1SC1=C(C(=O)O)N2C(=O)[C@@H](NC(=O)/C(=N\O)c3nc(N)sc3Cl)[C@H]2SC1 [Cmpd 45, (7R)-7-[(Z)-2-(2-amino-5-chlorothiazol-4-yl)-2-(hydroxyimino)acetamido]-3-(3-aminoethylsulfonylmethylpyrid-4-ylthio)-3-cephem-4-carboxylate, trifluoroacetic acid salt] | 16 | 0.13 | 16 | 2 | 4 | > 32 | 4 | 2 | 1 | 4 | 2 | 4 | 8 | 4 | 1 |  |  |  |  |  | 
NCCCCOCc1cnccc1SC1=C(C(=O)O)N2C(=O)[C@@H](NC(=O)/C(=N\O)c3nc(N)sc3Cl)[C@H]2SC1 [Cmpd 46, (7R)-7-[(Z)-2-(2-amino-5-chlorothiazol-4-yl)-2-(hydroxyimino)acetamido]-3-(3-(4-aminobutyloxymethyl)pyrid-4-ylthio)-3-cephem-4-carboxylate, trifluoroacetic acid salt] | 8 | 0.13 | 16 | 2 | 2 | > 32 | 4 | 2 | 1 | 2 | 2 | 4 | 8 | 2 | 0.5 |  |  |  |  |  | 
NCCSCc1cnccc1SC1=C(C(=O)O)N2C(=O)[C@@H](NC(=O)/C(=N\OCCF)c3nc(N)sc3Cl)[C@H]2SC1.O=C(O)C(F)(F)F [Cmpd 33, (7R)-7-[(Z)-2-(2-amino-5-chlorothiazol-4-yl)-2-(2-fluoroethoxyimino)acetamido]-3-(3-aminoethylthiomethylpyrid-4-ylthio)-3-cephem-4-carboxylate, trifluoroacetic acid salt] | 1 | 0.13 | 8 | 0.5 | 2 | 32 | 1 | 0.13 | 0.25 | 2 | 0.25 | 1 | 2 | 1 |  | 0.13 | 0 | 40 | 50 | 90 | responders at 5 mg/kg ([9]; read-out: Survivors): 80%; ED50 [9]: 1.19 mg/kg
NCCSCc1cnccc1SC1=C(C(=O)O)N2C(=O)[C@@H](NC(=O)/C(=N\O)c3ccccc3)[C@H]2SC1.O=C(O)C(F)(F)F [Cmpd 26, (7R)-7-[(Z)-2-phenyl-2-(hydroxyimino)acetamido]-3-(3-aminoethylthiomethylpyrid-4-ylthio)-3-cephem-4-carboxylate, trifluoroacetic acid salt] | > 32 | ≤ 0.06 | 8 | 0.25 | 0.5 | > 32 | 1 | ≤ 0.06 | 0.13 | 1 | 0.13 | 1 | 2 | 0.5 |  | 0.13 | 10 | 50 | 50 | 70 | responders at 5 mg/kg ([9]; read-out: Survivors): 90%; ED50 [9]: 1.06 mg/kg
NCCSCc1cnccc1SC1=C(C(=O)O)N2C(=O)[C@@H](NC(=O)/C(=N\O)c3nc(N)sc3Cl)[C@H]2SC1 [Cmpd 16, (7R)-7-[(Z)-2-(2-amino-5-chlorothiazol-4-yl)-2-(hydroxyimino)acetamido]-3-(3-aminoethylthiomethylpyrid-4-ylthio)-3-cephem-4-carboxylate, trifluoroacetic acid salt] | 8 | ≤ 0.06 | 8 | 0.5 | 0.25 | > 32 | 1 | 0.13 | 0.25 | 1 | 0.25 | 1 | 2 | 0.5 |  | 0.13 | 10 | 30 | 55.6 | 80 | responders at 0.156 mg/kg ([9]; Dose 0.156 mg/kg, read-out: Survivors): 20%; ED50 [9]: 1 mg/kg
